The values that follow come from patent US20240285571A1, “METHODS OF TREATING BONE INFECTIONS” (MICROBION CORPORATION, priority 2020, published 2024).

Values after ≈ are worked out from the molar mass of the structure shown. Like-named read-outs stand apart in the source and are kept apart here.

The subject of test [1] is M. abscessus (MABSC). Nature of the test: MIC against CF isolates (Example 7, Table 18). It is filed as cell-based, Mycobacterium abscessus complex. The following applies: Mycobacteroides abscessus.
For test [2], the system named is S. aureus ATCC 29213. The following applies: per CLSI M100-S24 or provided by Microbion; cited from earlier work.
In test [3] the test system is Streptococcus oralis. Nature of the test: MIC of baseline clinical isolates (Example 8). It is filed as cell-based. The following applies: Streptococcus oralis baseline isolates (N′ = 1), central laboratory, mITT. The essentials: (§1)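 Isolates recovered on Day 1 and at later surgeries from infected bone, adjacent tissue, deep swabs and superficial wound/sinus sites. Identification and susceptibility to MBN-101 (BisEDT) and comparators run centrally per CLSI methods.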

The subject of test [4] is Corynebacterium jeikeium. The test is described as follows: MIC of baseline clinical isolates (Example 8). In kind it is cell-based. Conditions: Corynebacterium jeikeium baseline isolates (N′ = 2), central laboratory, mITT. The essentials: as §1
Test [5] deals with non-speciated Corynebacterium. Nature of the test: MIC of baseline clinical isolates (Example 8). It is filed as cell-based. Conditions: Corynebacterium non-speciated baseline isolates (N′ = 2), central laboratory, mITT. The essentials:
as §1

In test [6] the test system is Corynebacterium resistens. The test is described as follows: MIC of baseline clinical isolates (Example 8). In kind it is cell-based. Conditions: Corynebacterium resistens baseline isolates (N′ = 1), central laboratory, mITT. The essentials:
as §1

For test [7], the system named is Dermabacter hominis. The test is described as follows: MIC of baseline clinical isolates (Example 8). It is filed as cell-based. Conditions: Dermabacter hominis baseline isolates (N′ = 1), central laboratory, mITT. The essentials:
as §1

Test [8] relates to Corynebacterium amycolatum. The test is described as follows: MIC of baseline clinical isolates (Example 8). It is filed as cell-based. Conditions: Corynebacterium amycolatum baseline isolates (N′ = 1), central laboratory, mITT. The essentials:
as §1

Test [9] concerns S. aureus. Nature of the test: Broth microdilution MIC (Example 5). It is filed as cell-based, Staphylococcus aureus. The following applies: Staphylococcus aureus. The essentials: (§2)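 Colonies were suspended to a 0.5 McFarland standard, diluted in test media, and dispensed into plates holding two-fold serial drug dilutions.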
The test system of test [10] is P. aeruginosa. The test is described as follows: Broth microdilution MIC (Example 5). In kind it is cell-based, Pseudomonas aeruginosa. The following applies: Pseudomonas aeruginosa. The protocol: Test and Comparator Agents: The test agents were stored at room temperature until assayed. […] The stock solutions were allowed to stand for at least 1 hr prior to use to auto-sterilize.
TestMedia: Test media were prepared and stored in accordance with guidelines from CLSI (4, 6, 7).
Broth Microdilution MC Testing (Aerobic Bacteria and Yeast): The broth microdilution assay method employed for the susceptibility testing of aerobic bacteria (excluding N. gonorrhoeae which was evaluated by agar dilution) and yeast essentially followed the procedures described by CLSI (3, 4, 7, 8) and employed automated liquid handlers to conduct serial dilutions and liquid transfers. […] These would become the ‘mother plates’ from which ‘daughter’ or test plates would be prepared. The drugs (300 μL at 40× the desired top concentration in the test plates) were dispensed into the appropriate well in Column 1 of the mother plates. The Biomek 2000 was used to make serial two-fold dilutions through Column 11 in the “mother plate”. The wells of Column 12 contained no drug and ultimately served as the organism growth control wells.
The daughter plates were prepared using the Biomek FX which transferred 5 μL of drug solution from each well of a mother plate to the corresponding well of the correct daughter plate in a single step.
A standardized inoculum of each organism was prepared per CLSI methods (3, 7). Isolated colonies of each test isolate were picked from the primary plate and a suspension was prepared to equal a 0.5 McFarland turbidity standard. Standardized suspensions were then diluted […] (1:100 for yeast, 1:20 for bacteria). After dilution, the inoculum suspensions were then transferred to compartments of sterile reservoirs divided by length (Beckman Coulter), and the Biomek 2000 was used to inoculate all plates. Daughter plates were placed on the Biomek 2000 in reverse orientation so that plates were inoculated from low to high drug concentration.
The Biomek 2000 delivered 10 μL of standardized inoculum into each well of the appropriate daughter plate for an additional 1:20 dilution.
Plates were stacked 4 high, covered with a lid on the top plate, placed into plastic bags, and incubated at 35° C. for approximately 24-48 hr for all yeast isolates and 16-24 hr for aerobic bacteria. Plates were viewed from the bottom using a plate viewer. […] MIC endpoints for the test agents and control compounds were read per CLSI criteria (3, 7).
In general terms: Broth dilution looks for growth in wells or tubes with falling amounts of substance.

Test [11] concerns S. pneumoniae. Nature of the test: Broth microdilution MIC (Example 5). In kind it is cell-based. The following applies: Streptococcus pneumoniae. The essentials: as §2
Where [12] appears, read: ATCC 29213 / MSSA, S. aureus MMX 101 (ATCC 29213), QC, MSSA.
Where [13] appears, read: ATCC27853, P. aeruginosa MMX 103 (ATCC 27853), QC, read-out: MIC.
Setting [14] is: ATCC49619, S. pneumoniae MMX 6837 (ATCC 49619), QC.
Where [15] appears, read: S. pneumoniae MMX 880, LevR SXTR CCR EryR PenR.
The mark [16] stands for this setting: S. pneumoniae MMX 937, MemR SXTR CCR EryR PenR.
Where [17] appears, read: S. pneumoniae MMX 3959, CCR EryR.
[18] abbreviates: S. pneumoniae MMX 5440, MemR SXTR CCR EryR PenR.
The mark [19] stands for this setting: S. pneumoniae MMX 5445, MemR SXTR CCR EryR PenR.
[20] abbreviates: S. pneumoniae MMX 8133, MemR SXTR CCR EryR PenR.

For orientation: MIC means the lowest concentration that inhibits growth of the organism. For the compound `NCC[C@H](O)C(=O)N[C@@H]1C[C@H](N)[C@@H](O[C@H]2O[C@H](CN)[C@@H](O)[C@H](O)[C@H]2O)[C@H](O)[C@H]1O[C@H]1O[C@H](CO)[C@@H](O)[C@H](N)[C@H]1O` [Amikacin], the MIC in test [1] (strain AMT0068-40, M abscessus/massiliense complex) is 32 µg/mL (≈ 54.6 µM); in test [1] (strain AMT0119-7, M abscessus/massiliense complex), 32 µg/mL (≈ 54.6 µM). In addition, the “MIC, acceptable range” value in test [2] is 1 to 4 µg/mL. The “MIC, expected results” value in test [2] is 2 µg/mL (≈ 3.42 µM).

In the case of `CCC[C@@H]1C[C@@H](C(=O)N[C@@H]([C@H]2O[C@H](SC)[C@H](O)[C@@H](O)[C@H]2O)[C@H](C)Cl)N(C)C1` [CLI], the “Mean MIC” value stood at 0.03 µg/mL in [3]; 2.00 µg/mL in test [4]; 1.06 µg/mL in test [5]; 0.50 µg/mL in test [6]; 0.50 µg/mL in test [7]; 2.00 µg/mL in [8]. The “n (% resistant)” value in [3] is on record as 0 (0.0) n (%); in [4], 2 (100.0) n (%); in [5] it was 1 (50.0) n (%); in test [6], 0 (0.0) n (%); in test [7], 0 (0.0) n (%); in [8], 1 (100.0) n (%).

Consider `OCC(S)CS.[Bi]` (centres unmarked) [MB-2B, bismuth-2,3-dimercaptopropanol], for which the minimal inhibitory concentration (MIC) was 0.5 µg/mL in [9] (setting [12]); no more than 0.06 µg/mL in [9] (MRSA, S. aureus MMX 5373); no more than 0.06 µg/mL in test [9] (MRSA, S. aureus MMX 6311); 0.25 µg/mL in test [9] (MRSA, S. aureus MMX 9203); no more than 0.06 µg/mL in test [9] (MRSA, S. aureus MMX 9204); no more than 0.06 µg/mL in test [9] (MRSA, S. aureus MMX 9205). In addition, the MIC in test [9] (MRSA, read-out: MIC values against MRSA, MRSA isolates (Table 5)) is less than 0.06 µg/mL; in test [10] (setting [13]) it was 8 µg/mL; in [10] (P. aeruginosa MMX 1381, MDR), 2 µg/mL; in test [10] (P. aeruginosa MMX 2562, MDR), 4 µg/mL; in test [10] (P. aeruginosa MMX 3991, MDR) it was 8 µg/mL; in test [10] (P. aeruginosa MMX 4654, IMP-7) it was 8 µg/mL. In addition, the MIC was 16 µg/mL in test [10] (P. aeruginosa MMX 4697, VIM-2); 8 µg/mL in test [11] (setting [14]); 8 µg/mL in [11] (setting [15]); 1 µg/mL in [11] (setting [16]); 8 µg/mL in test [11] (setting [17]); 8 µg/mL in test [11] (setting [18]). Further, the minimum inhibitory concentration (MIC) in test [11] (setting [19]) is 8 µg/mL; in test [11] (setting [20]) it was 8 µg/mL; in test [11] (read-out: MIC values across isolates, pneumococci (Table 6)), 1 to 8 µg/mL.

Turning to `CC(S)C(C)S.[Bi]` (centres unmarked) [MB-6, bismuth-2,3-butanedithiol], the minimal inhibitory concentration (MIC) is no more than 0.06 µg/mL in test [9] (setting [12]); no more than 0.06 µg/mL in test [9] (MRSA, S. aureus MMX 5373); no more than 0.06 µg/mL in test [9] (MRSA, S. aureus MMX 6311); no more than 0.06 µg/mL in [9] (MRSA, S. aureus MMX 9204); no more than 0.06 µg/mL in test [9] (MRSA, S. aureus MMX 9205); 1 µg/mL in test [10] (setting [13]). Besides, the minimum inhibitory concentration (MIC) in test [1] (MABSC strain AMT0130-8) worked out at 0.0625 µg/mL; in [11] (setting [14]), 0.5 µg/mL; in test [11] (setting [15]) it was 0.5 µg/mL; in [11] (setting [16]), 8 µg/mL; in test [11] (setting [17]) it was 1 µg/mL; in test [11] (setting [18]), 0.5 µg/mL. The MIC in test [11] (setting [19]) and in test [11] (setting [20]) was 0.5 µg/mL throughout. The “MIC, acceptable range” value in [2] was 0.12 to 0.5 µg/mL. Besides, the “MIC, expected results” value in [2] was 0.25 µg/mL.

Consider `C[C@H]1COc2c(N3CCN(C)CC3)c(F)cc3c(=O)c(C(=O)O)cn1c23` [Levofloxacin], for which the minimal inhibitory concentration (MIC) in test [3] worked out at 2 µg/mL; in test [4], 0.18 µg/mL; in [5], 0.18 µg/mL; in test [6], 0.12 µg/mL; in [7], 1 µg/mL; in test [8], 8 µg/mL. In addition, the “n (% resistant)” value in test [3], in test [4], in [5], in test [6], in [7] and in test [8] was 0 (0.0) n (%) throughout.
